Assay results as given in patent US9206173B2, “Heterocyclic compounds for the treatment of stress-related conditions” (OTSUKA PHARMACEUTICAL CO., LTD., priority 2009, dated 2015).
Structures can show the parent of a compound that is named as a salt.

Columns and labels:
human GPR10 [1] = biological target: T1, human GPR10 (Homo sapiens (Human), UniProt P49683); experiment: Inhibitory activity on binding of [3H]-PrRP to GPR10 (HEK 293 cell membrane fraction); details: [3H]-PrRP 1 nM, human GPR10-expressing HEK 293 cell membrane fraction; Ki from IC50 by Cheng-Prussoff formula
Description: Inhibitory Activity on Binding of [^3H]-PrRP to GPR10
Human GPR10 receptor expressing human embryonic kidney cells, HEK 293 cells, were cultured in Dulbecco's Modified Eagle's medium supplemented with 10% fetal bovine serum and 1% penicilline-streptmycin at 37° C., in 5% carbon dioxide gas conditions. The medium was removed and the cells were recovered in a phosphate buffer to prepare a cell suspension. The cell suspension was homogenated on ice by an ultrasonic cell homogenizer (Microson™ type XL200) and centrifuged at 40,000 g for 10 minutes at 4° C. After the supernatant was discarded, Buffer A (20 mM HEPES, 10 mM EDTA, 1 μl/ml protease inhibiting cocktail, pH 7.4) was added to the pellet. The pellet was suspended by the ultrasonic cell homogenizer, then the suspension was centrifuged at 40,000 g, for 10 minutes at 4° C. After this operation was repeated once again, the supernatant was discarded, Buffer B (20 mM HEPES, 0.1 mM EDTA, pH 7.4) was added to the pellet, and the pellet was suspended by the ultrasonic homogenizer. This was stored at a freezer of −80° C. as a cell membrane fraction until use in a binding test.
To each well of a 96-well plate, 150 μl of assay buffer (20 mM HEPES, 10 mM EDTA, 1 μl/ml protease inhibiting agent cocktail, pH 7.4), 20 μl of cell membrane fraction, 10 μl of test compound and [^3H]-PrRP (final concentration 1 nM) were added and incubated at room temperature for 90 minutes. After completion of the reaction, using a cell harvester, the cell-membrane fraction sample product was filtered under aspiration by a glass fiber filter plate (Unifilter; GF/B) previously treated with 0.5% polyethylene imine. The filter was washed with a 50 mM Tris hydrochloric acid buffer (pH 7.4) three times. After the filter was dried in a dryer (50° C.) for about 3 hours, 40 μl of liquid scintillation cocktail (MicroScint-O) was added to each well and radio activity was measured by a scintillation counter (Packard Topcount). The radio activity in the presence of an excessive amount of non-labeled PrRP (final concentration: 100 nM) was regarded as non-specific binding.
The binding inhibition rate was calculated based on calculating formula: 100−(radio activity when a compound is added−radio activity of non-specific binding)÷(radio activity when a solvent is added−radio activity of non-specific binding)×100.
An IC50 value was calculated based on the concentration dependent reaction using a non-linear analysis program and a Ki value was calculated using Cheng-Prussoff formula.

human GPR10 [2] = biological target: T1, human GPR10; experiment: Antagonistic activity on PrRP-induced intracellular calcium mobilization in human GPR10-expressing HEK293 cells; assay type: cell-based; details: PrRP 1 nM-induced intracellular calcium mobilization, Fluo-8
Description: Pharmacological Test 2 Antagonistic Activity on GPR10 Using Human GPR10-Expressing HEK293 Cells.
Antagonistic activity of test compounds on PrRP-induced intracellular calcium mobilization was evaluated using GPR10-expressing HEK293 cells.
HEK293 cells expressing human GPR10 were maintained in Dulbecco's Modified Eagles' medium supplemented with 10% fetal bovine serum, 1% penicillin-streptomycin and 20 mM HEPES at 37° C. in a 5% CO2 incubator. GPR10-expressing HEK293 cells were placed in poly-D-lysine coated 96-well culture plates and cultured for 18-24 hr before the test at a density of 3×10^4 cells/well. […] The cells were incubated with test compounds for 15 min at room temperature, and then PrRP (the final concentration, 1 nM) was added into the medium. The changes in intracellular calcium-dependent fluorescence were monitored using a fluorescence imaging plate reader (FDSS3000, Hamamatsu Photonics K.K.). Fluo-8 fluorescence was measured with excitation at 490 nm and emission at 520 nm. The calcium-dependent fluorescence intensity was calculated by subtracting basal intensity (average intensity for 30 sec before agonist stimulation) from peak intensity for 60 sec after PrRP-stimulation, and then IC50 values were determined by nonlinear curve-fitting program, GraphPad Prism 5.

T1 sequence (P49683 whole entry): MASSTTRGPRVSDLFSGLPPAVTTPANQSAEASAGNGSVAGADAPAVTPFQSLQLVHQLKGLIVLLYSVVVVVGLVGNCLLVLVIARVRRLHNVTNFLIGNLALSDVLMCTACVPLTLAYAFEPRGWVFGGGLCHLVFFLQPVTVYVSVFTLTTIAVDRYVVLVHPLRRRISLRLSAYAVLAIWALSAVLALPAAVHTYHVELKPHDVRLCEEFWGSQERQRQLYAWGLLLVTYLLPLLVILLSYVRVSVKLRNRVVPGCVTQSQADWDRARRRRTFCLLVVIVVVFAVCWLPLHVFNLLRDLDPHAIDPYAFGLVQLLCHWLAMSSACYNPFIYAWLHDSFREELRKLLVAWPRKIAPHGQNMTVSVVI

SMILES	Ki (human GPR10 [1])	IC50 (human GPR10 [2])
C[C@H](Nc1nc2c(c(=O)n1N1CCOCC1)CN(C(=O)c1ccc(C#N)cc1F)CC2)c1ccc(C(F)(F)F)cc1 [Example 2463, 3-fluoro-4-{3-morpholin-4-yl-4-oxo-2-[(S)-1-(4-trifluoromethylphenyl)ethylamino]-3,5,7,8-tetrahydro-4H-pyrido[4,3-d]pyrimidine-6-carbonyl}benzonitrile hydrochloride]	3 nM	187 nM
COc1ccc(C(=O)N2CCc3nc(N[C@@H](C)c4ccc(C(F)(F)F)cc4)n(OC)c(=O)c3C2)c(OC)n1 [Example 2419, 6-(2,6-dimethoxypyridine-3-carbonyl)-3-methoxy-2-[(S)-1-(4-trifluoromethylphenyl)ethylamino]-5,6,7,8-tetrahydro-3H-pyrido[4,3-d]pyrimidin-4-one]	7 nM	228 nM
C[C@H](Nc1nc2c(c(=O)n1N(C)C)CN(C(=O)c1c(F)cc(F)cc1F)CC2)c1ccc(C(F)(F)F)cc1 [Example 2484, 3-dimethylamino-6-(2,4,6-trifluorobenzoyl)-2-[(S)-1-(4-trifluoromethylphenyl)ethylamino]-5,6,7,8-tetrahydro-3H-pyrido[4,3-d]pyrimidin-4-one hydrochloride]	6 nM	216 nM
CC#CCn1c(N[C@@H](C)c2ccc(C(F)(F)F)cc2)nc2c(c1=O)CN(C(=O)c1ccc3ccccc3n1)CC2 [Example 2449, 3-(2-butynyl)-6-(quinoline-2-carbonyl)-2-[(S)-1-(4-trifluoromethylphenyl)ethylamino]-5,6,7,8-tetrahydro-3H-pyrido[4,3-d]pyrimidin-4-one]	24 nM	3350 nM
CCOn1c(N[C@H](C)c2ccc(C(F)(F)F)cc2)nc2c(c1=O)CN(C(=O)c1ccc(C#N)cc1F)CC2 [Example 95]	5 nM	227 nM
CC#CCn1c(N[C@@H](C)c2ccc(C(F)(F)F)cc2)nc2c(c1=O)CN(C(=O)c1ccc3c(c1)CCC(=O)N3)CC2 [Example 2412, 3-(2-butynyl)-6-(2-oxo-1,2,3,4-tetrahydro-quinoline-6-carbonyl)-2-[(S)-1-(4-trifluoromethylphenyl)ethylamino]-5,6,7,8-tetrahydro-3H-pyrido[4,3-d]pyrimidin-4-one hydrochloride]	8 nM	259 nM
CC#CCn1c(N[C@@H](C)c2ccc(C(F)(F)F)cc2)nc2c(c1=O)CN(C(=O)c1ccc(-c3cnco3)cc1)CC2 [Example 2410, 3-(2-butynyl)-6-(4-oxazol-5-ylbenzoyl)-2-[(S)-1-(4-trifluoromethylphenyl)ethylamino]-5,6,7,8-tetrahydro-3H-pyrido[4,3-d]pyrimidin-4-one hydrochloride]	10 nM	665 nM
CC#CCn1c(N[C@@H](C)c2ccc(C(F)(F)F)cc2)nc2c(c1=O)CN(C(=O)c1ccc3cccnc3c1)CC2 [Example 2417, 3-(2-butynyl)-6-(quinoline-7-carbonyl)-2-[(S)-1-(4-trifluoromethylphenyl)ethylamino]-5,6,7,8-tetrahydro-3H-pyrido[4,3-d]pyrimidin-4-one dihydrochloride]	17 nM	780 nM
CCOn1c(N[C@H](C)c2ccc(C(F)(F)F)cc2)nc2c(c1=O)CN(C(=O)c1ccc(-c3cnco3)cc1)CC2 [Example 104]	20 nM	158 nM
COn1c(N[C@@H](C)c2ccc(C(F)(F)F)cc2)nc2c(c1=O)CN(C(=O)c1ccc(Cl)s1)CC2 [Example 2405, 6-(5-chlorothiophene-2-carbonyl)-3-methoxy-2-[(S)-1-(4-trifluoromethylphenyl)ethylamino]-5,6,7,8-tetrahydro-3H-pyrido[4,3-d]pyrimidin-4-one]	15 nM	8790 nM
CC#CCn1c(N[C@@H](C)c2ccc(C(F)(F)F)cc2)nc2c(c1=O)CN(C(=O)c1cnc3ccccc3c1)CC2 [Example 2446, 3-(2-butynyl)-6-(quinoline-3-carbonyl)-2-[(S)-1-(4-trifluoromethylphenyl)ethylamino]-5,6,7,8-tetrahydro-3H-pyrido[4,3-d]pyrimidin-4-one]	28 nM	2790 nM
COn1c(N[C@@H](C)c2ccc(C(F)(F)F)cc2)nc2c(c1=O)CN(C(=O)CCc1ccc(Cl)cc1)CC2 [Example 2391, 6-[3-(4-chlorophenyl)propionyl]-3-methoxy-2-[(S)-1-(4-trifluoromethylphenyl)ethylamino]-5,6,7,8-tetrahydro-3H-pyrido[4,3-d]pyrimidin-4-one]	134 nM	3900 nM
COn1c(N[C@@H](C)c2ccc(C(F)(F)F)cc2)nc2c(c1=O)CN(C(=O)c1ccc(C)s1)CC2 [Example 2404, 3-methoxy-6-(5-methyl-thiophene-2-carbonyl)-2-[(S)-1-(4-trifluoromethylphenyl)ethylamino]-5,6,7,8-tetrahydro-3H-pyrido[4,3-d]pyrimidin-4-one]	10 nM	1130 nM
C#CCCn1c(N[C@@H](C)c2ccc(C(F)(F)F)cc2)nc2c(c1=O)CN(C(=O)c1ccc(C#N)cc1F)CC2 [Example 2435, 4-{3-(3-butynyl)-4-oxo-2-[(S)-1-(4-trifluoromethylphenyl)ethylamino]-3,5,7,8-tetrahydro-4H-pyrido[4,3-d]pyrimidine-6-carbonyl}-3-fluorobenzonitrile]	2 nM	68 nM
CC#CCn1c(N[C@@H](C)c2ccc(C(F)(F)F)cc2)nc2c(c1=O)CN(C(=O)c1ccc(C#N)cc1F)CC2 [Example 2406, 4-{3-(2-butynyl)-4-oxo-2-[(S)-1-(4-trifluoromethylphenyl)ethylamino]-3,5,7,8-tetrahydro-4H-pyrido[4,3-d]pyrimidine-6-carbonyl}-3-fluorobenzonitrile hydrochloride]	2 nM	78 nM
CC#CCn1c(N[C@@H](C)c2ccc(C(F)(F)F)cc2)nc2c(c1=O)CN(C(=O)c1ccc(Cl)cc1)CC2 [Example 2409, 3-(2-butynyl)-6-(4-chlorobenzoyl)-2-[(S)-1-(4-trifluoromethylphenyl)ethylamino]-5,6,7,8-tetrahydro-3H-pyrido[4,3-d]pyrimidin-4-one hydrochloride]	16 nM	2440 nM
CCOn1c(N[C@H](C)c2ccc(C(F)(F)F)cc2)nc2c(c1=O)CN(C(=O)c1ccc(Cl)cc1)CC2 [Example 86]	25 nM	3710 nM
COn1c(N[C@@H](C)c2ccc(C(F)(F)F)cc2)nc2c(c1=O)CN(C(=O)c1ccc(C#N)cc1F)CC2 [Example 11, 6-(4-cyano-2-fluorobenzoyl)-3-methoxy-2-(S)-{1-[4-(trifluoromethyl)phenyl]ethylamino}-5,6,7,8-tetrahydropyrido[4,3-d]pyrimidin-4-(3H)-one hydrochloride]	15 nM	34 nM
CCOn1c(N[C@H](C)c2ccc(C(F)(F)F)cc2)nc2c(c1=O)CN(C(=O)c1cc3cccnc3s1)CC2 [Example 121]	17 nM	1680 nM
CCOn1c(N[C@H](C)c2ccc(C(F)(F)F)cc2)nc2c(c1=O)CN(C(=O)c1ccc(C#N)cc1)CC2 [Example 92]	11 nM	156 nM
CC#CCn1c(N[C@@H](C)c2ccc(C(F)(F)F)cc2)nc2c(c1=O)CN(C(=O)c1ccc(C#N)cc1)CC2 [Example 2407, 4-{3-(2-butynyl)-4-oxo-2-[(S)-1-(4-trifluoromethylphenyl)ethylamino]-3,5,7,8-tetrahydro-4H-pyrido[4,3-d]pyrimidine-6-carbonyl}benzonitrile hydrochloride]	8 nM	207 nM
COn1c(N[C@@H](C)c2ccc(C(F)(F)F)cc2)nc2c(c1=O)CN(C(=O)c1ccc(OC(F)(F)F)cc1)CC2 [Example 63]	16 nM	686 nM
